According to patent publication US6066628A, “Non-iron metalloporphyrins and methods of use” (Emory University, priority 1998, dated 2000):
Read-outs that look alike come from different tables or passages of the source.

Experiments:
[1] = test system: E. coli; assay: Disc diffusion sensitivity test; format: cell-based, Escherichia coli
[2] = test system: K. pneumoniae; assay: Disc diffusion sensitivity test; format: cell-based, Klebsiella pneumoniae
[3] = test system: F. menigosepticum; assay: Disc diffusion sensitivity test; format: cell-based, Flavobacterium meningosepticum
[4] = test system: S. aureus; assay: Disc diffusion sensitivity test; format: cell-based, Staphylococcus aureus
[5] = test system: M tuber. H37Rv; assay: Disc diffusion sensitivity test; format: cell-based, Mycobacterium tuberculosis; conditions: disc ~50 μg MP
[6] = test system: S. crevisieae; assay: Disc diffusion sensitivity test; format: cell-based, Saccharomyces cerevisiae; conditions: S. cerevisiae; disc ~50 μg MP
[7] = test system: Staphylococcus carnosus; assay: Disc diffusion sensitivity test; format: cell-based; conditions: 50 μg disc
[8] = test system: Y. enterocolitica; assay: microbe, parasite or virus in culture; format: cell-based
[9] = test system: M. smegmatis; format: cell-based, Mycobacterium smegmatis
[10] = test system: Neisseria meningitidis; assay: Minimal inhibitory concentration; format: cell-based
[11] = test system: Bacillus subtilis; assay: Minimal inhibitory concentration; format: cell-based
[12] = test system: Streptococcus pyogenes JRS4; format: cell-based
[13] = test system: H. pylori ATCC 43504; assay: Minimal inhibitory concentration; format: cell-based, Helicobacter pylori; conditions: H. pylori ATCC 43504 (Table 5)
[14] = test system: Y. enterocolitica fur (H1852); format: cell-based; conditions: 1 μg/ml
[15] = test system: CaCO-2 cells; assay: Toxicity to mammalian cell monolayers; format: cell-based; conditions: 5 to 400 μg/ml; 24 to 48 hours
Procedure: (§1) To test for toxicity of MPs for mammalian cells, semiconfluent monolayers of four cell lines (MRC-5 primary human fibroblasts, Vero cells, MDCK cells and CaCO-2 cells) were incubated for 24 to 48 hours in the presence of 5, 25, 50, 250 and 400 μg/ml of Ga-PPIX dissolved in 0.02 M NaOH.

[16] = test system: mice; assay: Preliminary toxicity testing on animals; format: in vivo
Procedure: as §1
Two mice were each injected intraperitoneally with 0.5 mg gallium protoporphyrin IX and observed for 7 days. […] The animals were sacrificed, and their internal organs were microscopically examined for signs of inflammation.

[17] = test system: bacteria; format: cell-based
[18] = test system: Gram-negative bacteria
[19] = test system: S. aureus
[20] = test system: Vero cells; assay: Toxicity to mammalian cell monolayers; conditions: 0.5 mg in 1 mL DMEM; 24 hrs
[21] = test system: MDCK cells; assay: Toxicity to mammalian cell monolayers; conditions: 0.5 mg in 1 mL DMEM; 24 hrs

## C=CC1=C(C)C2=Cc3c(C=C)c(C)c4[n]3[Ga][n]3c(c(C)c(CCC(=O)O)c3=CC3=NC(=C4)C(C)=C3CCC(=O)O)=CC1=N2 [Ga-PPIX, Gallium (III) protoporphyrin IX chloride]
[1]; E. coli, disc ~50 μg MP
  diameter (mm) of the inhibition zone: 24 mm
[1]; Escherichia coli, 50 μg disc
  sensitive strains / strains tested (inhibition zones larger or equal 20 mm): 16/18
[2]; K. pneumoniae, disc ~50 μg MP
  diameter (mm) of the inhibition zone: 22 mm
[2]; Klebsiella pneumoniae, 50 μg disc
  sensitive strains / strains tested (inhibition zones larger or equal 20 mm): 9/13
[3]; F. meningosepticum, disc ~50 μg MP
  diameter (mm) of the inhibition zone: 22 mm
[3]; Flavobacterium meningosepticum, 50 μg disc
  sensitive strains / strains tested (inhibition zones larger or equal 20 mm): 1/1
[4]; S. aureus, disc ~50 μg MP
  diameter (mm) of the inhibition zone: 22 mm
[4]; Staphylococcus aureus, 50 μg disc
  sensitive strains / strains tested (inhibition zones larger or equal 20 mm): 9/9
[5]
  diameter (mm) of the inhibition zone: 20 mm
[6]
  diameter (mm) of the inhibition zone: -
[7]
  sensitive strains / strains tested (inhibition zones larger or equal 20 mm): 1/1
[8]
  Minimal inhibitory concentration (MIC): 0.4
  antibacterial activity: inhibitory
  sensitivity of hemR mutant: resistant to relatively high concentrations
  sensitivity of hemT, hemU, hemV mutants: fully sensitive
[8]; in µg/mL
  MIC: 0.4
[9]; LB+0.2 mM Desferal
  lower MIC in low iron media: 2 fold
[9]; M. smegmatis
  antibacterial activity: inhibitory
[9]; M. smegmatis LR222 (Table 4)
  MIC: 0.5 µg/mL
[9]; M. smegmatis LR222, LB + Tween 80 (Table 2)
  Minimal inhibitory concentration (MIC): 0.4 µg/mL
[9]; M. smegmatis LR222, dark (Table 10)
  MIC: 0.4 µg/mL
[10]; N. meningitidis IR1072, 20 to 24 hours (Table 5)
  MIC: 0.1 µg/mL
[10]; Neisseria meningitidis (Table 4)
  MIC: < 0.1 µg/mL
[11]; B. subtilis 3G18, 20 to 24 hours (Table 5)
  MIC: 0.2 µg/mL
[11]; Bacillus subtilis (Table 4)
  MIC: < 0.1 µg/mL
[12]
  sensitivity: resistant
[13]
  MIC: 0.2 µg/mL
[14]
  growth in presence of Ga-PPIX: completely prevented growth
[15]
  detachment or rounding of cells: No detachment or rounding of cells was noticed
[16]; 0.5 mg intraperitoneally, 7 days
  behavior, eating habits, stress, general condition: No change in behavior, eating habits and/or apparent stress or general condition were recorded
[16]; 0.5 mg intraperitoneally, 7 days, microscopy
  inflammation of internal organs: No visible indications of inflammation were observed
[16]; single intraperitoneal dose of 25 mg/kg
  peracute or acute effect on health and behavior: does not cause any peracute or acute effect on the health and behavior of mice
[17]
  antibacterial activity: widest spectrum and the highest level of antibacterial activity
[18]
  spontaneous resistance: gave rise to spontaneous resistant colonies
[19]
  spontaneous resistance: did not produce spontaneous resistant mutants
[20]
  cytotoxic and/or morphological changes: No visible cytotoxic and/or morphological changes were observed
[21]
  cytotoxic and/or morphological changes: No visible cytotoxic and/or morphological changes were observed
